Experimental data reported in patent US6737383B1, “Herbicidal oxadiazolidines” (priority 1999, dated 2004).

Assays:
[1] = system: crabgrass; experiment: Test B pre/postemergence crabgrass; assay type: in vivo, Digitaria sanguinalis
Method in brief: (§1)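 Response is a visual 0-to-10 score relative to untreated plants, where 0 means no effect and 10 means complete control, taken twelve to sixteen days after application. Treatments went onto soil at planting and onto foliage of 1- to 4-leaf plants, using a surfactant-containing non-phytotoxic solvent.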

[2] = system: smallflower flatsedge; experiment: Test B flood test smallflower flatsedge; assay type: in vivo, Cyperus difformis
Method in brief: (§2)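 Read-out is a visual response score from 0 (no effect) to 10 (complete control), assigned by comparison with untreated controls. Treatment was applied at the 2-leaf stage, and plants stayed in the greenhouse for twelve to sixteen days before scoring.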

[3] = system: blackgrass; experiment: Test B pre/postemergence blackgrass; assay type: in vivo, Alopecurus myosuroides
Method in brief: as §1

[4] = system: wild oat; experiment: Test B pre/postemergence wild oat; assay type: in vivo, Avena fatua
Method in brief: as §1

[5] = system: wheat; experiment: Test B pre/postemergence wheat; assay type: in vivo, Triticum aestivum
Method in brief: as §1

[6] = system: morningglory; experiment: Test B pre/postemergence morningglory; assay type: in vivo, Ipomoea hederacea
Method in brief: as §1

[7] = system: giant foxtail; experiment: Test B pre/postemergence giant foxtail; assay type: in vivo, Setaria faberii
Method in brief: as §1

[8] = system: duck salad; experiment: Test B flood test duck salad; assay type: in vivo, Heteranthera limosa
Method in brief: as §2

[9] = system: surinam grass; experiment: Test B pre/postemergence surinam grass; assay type: in vivo, Brachiaria decumbens
Method in brief: as §1

[10] = system: corn; experiment: Test B pre/postemergence corn; assay type: in vivo, Zea mays
Method in brief: as §1

[11] = system: bedstraw; experiment: Test B pre/postemergence bedstraw; assay type: in vivo, Galium aparine
Method in brief: as §1

[12] = system: purple nutsedge; experiment: Test B pre/postemergence purple nutsedge; assay type: in vivo, Cyperus rotundus
Method in brief: as §1

[13] = system: bamyardgrass; experiment: Test B flood test barnyardgrass; assay type: in vivo, Echinochloa crus-galli
Method in brief: as §2

[14] = system: velvetleaf; experiment: Test B pre/postemergence velvetleaf; assay type: in vivo, Abutilon theophrasti
Method in brief: as §1

[15] = system: cocklebur; experiment: Test B pre/postemergence cocklebur; assay type: in vivo, Xanthium strumarium
Method in brief: as §1

[16] = system: rice; experiment: Test B flood test rice; assay type: in vivo, Oryza sativa
Method in brief: as §2

[17] = Postemergence, Rate 125 g/ha, scale of 0 to 10 where 0 is no effect and 10 is complete control
[18] = Preemergence, Rate 62 g/ha, scale 0 to 10 (0 no effect, 10 complete control)
[19] = Preemergence, Rate 125 g/ha, 0 is no effect, 10 is complete control
[20] = Preemergence, Rate 250 g/ha, scale 0 to 10, 0 is no effect, 10 is complete control
[21] = Preemergence, Rate 500 g/ha, scale 0 to 10 (0 no effect, 10 complete control)
[22] = Rate 62 g/ha, Postemergence, scale of 0 to 10 where 0 is no effect and 10 is complete control
[23] = Rate 250 g/ha, Postemergence, scale 0 to 10, 0 is no effect, 10 is complete control
[24] = Rate 500 g/ha, Postemergence, scale 0 to 10
[25] = Postemergence (flood test species), Rate 125 g/ha, scale of 0 to 10 where 0 is no effect and 10 is complete control
[26] = Rate 62 g/ha, Postemergence section, flood test species, scale of 0 to 10 where 0 is no effect and 10 is complete control
[27] = Rate 250 g/ha, Postemergence (flood test), scale 0 to 10, 0 is no effect, 10 is complete control
[28] = Rate 500 g/ha, listed under Postemergence (flood test species), scale 0 to 10

Compound: CC(C)N(C(=O)n1oc(=O)n(CCCl)c1=O)c1ccc(F)cc1 [Compound 148]
- Crabgrass plant response rating [1, 17]: 8
- Crabgrass plant response rating [1, 18]: 5
- Crabgrass plant response rating (0 to 10 scale) [1, 19]: 8
- Crabgrass plant response rating [1, 20]: 9
- Crabgrass plant response rating [1, 21]: 9
- Crabgrass plant response rating [1, 22]: 8
- Plant response rating, Crabgrass [1, 23]: 8
- Crabgrass plant response rating [1, 24]: 9
- S. Flatsedge plant response rating [2, 25]: 0
- S. Flatsedge plant response rating [2, 26]: 0
- Plant response rating, S. Flatsedge [2, 27]: 0
- S. Flatsedge plant response rating [2, 28]: 2
- Blackgrass plant response rating [3, 17]: 7
- Blackgrass plant response rating [3, 18]: 4
- Blackgrass plant response rating (0 to 10 scale) [3, 19]: 4
- Blackgrass plant response rating [3, 20]: 7
- Blackgrass plant response rating [3, 21]: 9
- Blackgrass plant response rating [3, 22]: 5
- Plant response rating, Blackgrass [3, 23]: 7
- Blackgrass plant response rating [3, 24]: 7
- Wild oats plant response rating [4, 17]: 1
- Wild oats plant response rating [4, 18]: 6
- Wild oats plant response rating (0 to 10 scale) [4, 19]: 6
- Wild oats plant response rating [4, 20]: 6
- Wild oats plant response rating [4, 21]: 8
- Wild oats plant response rating [4, 22]: 0
- Plant response rating, Wild oats [4, 23]: 5
- Wild oats plant response rating [4, 24]: 5
- Wheat plant response rating [5, 17]: 1
- Wheat plant response rating [5, 18]: 0
- Wheat plant response rating (0 to 10 scale) [5, 19]: 3
- Wheat plant response rating [5, 20]: 3
- Wheat plant response rating [5, 21]: 6
- Wheat plant response rating [5, 22]: 0
- Plant response rating, Wheat [5, 23]: 3
- Wheat plant response rating [5, 24]: 5
- Morningglory plant response rating [6, 17]: 3
- Morningglory plant response rating [6, 18]: 0
- Morningglory plant response rating (0 to 10 scale) [6, 19]: 0
- Morningglory plant response rating [6, 20]: 0
- Morningglory plant response rating [6, 21]: 1
- Morningglory plant response rating [6, 22]: 3
- Plant response rating, Morningglory [6, 23]: 3
- Morningglory plant response rating [6, 24]: 5
- Giant foxtail plant response rating [7, 17]: 8
- Giant foxtail plant response rating [7, 18]: 7
- Giant foxtail plant response rating (0 to 10 scale) [7, 19]: 9
- Giant foxtail plant response rating [7, 20]: 9
- Giant foxtail plant response rating [7, 21]: 10
- Giant foxtail plant response rating [7, 22]: 5
- Plant response rating, Giant foxtail [7, 23]: 8
- Giant foxtail plant response rating [7, 24]: 9
- Ducksalad plant response rating [8, 25]: 0
- Ducksalad plant response rating [8, 26]: 0
- Plant response rating, Ducksalad [8, 27]: 0
- Ducksalad plant response rating [8, 28]: 0
- B. signalgrass plant response rating [9, 17]: 3
- B. signalgrass plant response rating [9, 18]: 0
- B. signalgrass plant response rating (0 to 10 scale) [9, 19]: 5
- B. signalgrass plant response rating [9, 20]: 7
- B. signalgrass plant response rating [9, 21]: 7
- B. signalgrass plant response rating [9, 22]: 0
- Plant response rating, B. signalgrass [9, 23]: 5
- B. signalgrass plant response rating ([9]; Rate 500 g/ha, Postemergence, scale of 0 to 10 where 0 is no effect and 10 is complete control): 7
- Corn plant response rating [10, 17]: 0
- Corn plant response rating [10, 18]: 0
- Corn plant response rating (0 to 10 scale) [10, 19]: 0
- Corn plant response rating [10, 20]: 0
- Corn plant response rating [10, 21]: 0
- Corn plant response rating [10, 22]: 0
- Plant response rating, Corn [10, 23]: 0
- Corn plant response rating [10, 24]: 0
- Bedstraw plant response rating [11, 17]: 5
- Bedstraw plant response rating [11, 18]: 0
- Bedstraw plant response rating (0 to 10 scale) [11, 19]: 0
- Bedstraw plant response rating [11, 20]: 0
- Bedstraw plant response rating [11, 21]: 2
- Bedstraw plant response rating [11, 22]: 2
- Plant response rating, Bedstraw [11, 23]: 6
- Bedstraw plant response rating ([11]; Rate 500 g/ha, Postemergence, scale 0 to 10, 0 no effect, 10 complete control): 6
- Nutsedge plant response rating [12, 17]: 0
- Nutsedge plant response rating [12, 18]: 0
- Nutsedge plant response rating (0 to 10 scale) [12, 19]: 0
- Nutsedge plant response rating [12, 20]: 0
- Nutsedge plant response rating [12, 21]: 0
- Nutsedge plant response rating [12, 22]: 0
- Plant response rating, Nutsedge [12, 23]: 0
- Nutsedge plant response rating [12, 24]: 0
- Barnyardgrass plant response rating [13, 25]: 0
- Barnyardgrass plant response rating [13, 26]: 0
- Plant response rating, Barnyardgrass [13, 27]: 0
- Barnyardgrass plant response rating ([13]; Rate 500 g/ha, listed under Postemergence (flood test species), scale 0 to 10, 0 no effect, 10 complete control): 4
- Velvetleaf plant response rating [14, 17]: 0
- Velvetleaf plant response rating [14, 18]: 0
- Velvetleaf plant response rating (0 to 10 scale) [14, 19]: 6
- Velvetleaf plant response rating [14, 20]: 8
- Velvetleaf plant response rating [14, 21]: 8
- Velvetleaf plant response rating [14, 22]: 0
- Plant response rating, Velvetleaf [14, 23]: 0
- Velvetleaf plant response rating [14, 24]: 1
- Cocklebur plant response rating [15, 17]: 0
- Cocklebur plant response rating (0 to 10 scale) [15, 19]: 0
- Cocklebur plant response rating [15, 20]: 0
- Cocklebur plant response rating [15, 21]: 0
- Cocklebur plant response rating [15, 22]: 0
- Plant response rating, Cocklebur [15, 23]: 0
- Cocklebur plant response rating [15, 24]: 3
- Rice plant response rating [16, 25]: 0
- Rice plant response rating [16, 26]: 0
- Plant response rating, Rice [16, 27]: 0
- Rice plant response rating [16, 28]: 0
